Test results reported in patent US6506772B1, “Substituted [1,2,4]triazolo[1,5a]pyridine derivatives with activity as adenosine receptor ligands” (Hoffmann-La Roche Inc., priority 2000, dated 2003).

Experiments:
[1] = biological target: T1, human adenosine A2A receptor (Homo sapiens, UniProt P29274); test: Human adenosine A2A receptor [3H]-SCH-58261 binding assay; conditions: for Ki: affinity to human adenosine A2A receptor, read-out: Ki HA2A; for selectivity (A1/A2a): calculated ratio of the affinity to the HA1 receptor to the HA2a receptor
T1 construct: expressed in transfected cells; host or cells: CHO cells, Semliki Forest virus expression system; membrane preparation
T1 sequence (P29274 whole entry): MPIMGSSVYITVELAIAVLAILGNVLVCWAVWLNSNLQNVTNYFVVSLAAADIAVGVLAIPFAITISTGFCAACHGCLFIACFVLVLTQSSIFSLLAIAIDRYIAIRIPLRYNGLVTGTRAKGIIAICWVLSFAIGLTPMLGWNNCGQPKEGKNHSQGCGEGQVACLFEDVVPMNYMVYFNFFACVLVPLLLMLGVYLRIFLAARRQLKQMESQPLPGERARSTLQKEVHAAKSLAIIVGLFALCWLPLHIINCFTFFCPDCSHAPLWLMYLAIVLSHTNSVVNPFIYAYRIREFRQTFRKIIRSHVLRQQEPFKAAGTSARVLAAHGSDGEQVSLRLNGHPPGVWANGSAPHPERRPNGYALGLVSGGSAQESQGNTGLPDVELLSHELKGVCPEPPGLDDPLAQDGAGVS

HA1 adenosine receptor = biological target: T2, HA1 adenosine receptor (Homo sapiens, UniProt P30542); test: Human adenosine A1 receptor affinity (Ki hA1); format: binding; conditions: affinity to human adenosine A1 receptor
T2 sequence (P30542 1-326): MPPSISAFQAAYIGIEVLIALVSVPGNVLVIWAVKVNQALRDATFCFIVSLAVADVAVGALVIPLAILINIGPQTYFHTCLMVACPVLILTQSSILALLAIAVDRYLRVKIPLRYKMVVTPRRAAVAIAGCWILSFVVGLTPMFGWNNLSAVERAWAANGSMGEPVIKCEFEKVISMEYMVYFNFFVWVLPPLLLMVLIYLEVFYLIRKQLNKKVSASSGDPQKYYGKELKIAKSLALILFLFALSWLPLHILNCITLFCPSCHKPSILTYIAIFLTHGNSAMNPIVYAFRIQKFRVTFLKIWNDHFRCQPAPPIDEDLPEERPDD

| Ki [1] [nM] | selectivity (A1/A2a) [1] | Ki (HA1 adenosine receptor) [nM] | SMILES |
| --- | --- | --- | --- |
| 19.1 | 24.0 | 459 | CCN(C)C(=O)c1cc(N)n2nc(-c3ccc(Cl)o3)nc2c1 [Example 250, 5-Amino-2-(5-chloro-furan-2-yl)-[1,2,4]triazolo[1,5-a]pyridine-7-carboxylic acid ethyl-methyl-amide] |
| 14.7 | 24.5 | 360 | C=CCN(C)C(=O)c1cc(N)n2nc(-c3ccc(Cl)o3)nc2c1 [Example 251, 5-Amino-2-(5-chloro-furan-2-yl)-[1,2,4]triazolo[1,5-a]pyridine-7-carboxylic acid allyl-methyl-amide] |
| 15.5 | 28.3 | 438 | CCCN(C)C(=O)c1cc(N)n2nc(-c3ccc(Cl)o3)nc2c1 [Example 252, 5-Amino-2-(5-chloro-furan-2-yl)-[1,2,4]triazolo[1,5-a]pyridine-7-carboxylic acid methyl-propyl-amide] |
| 9.5 | 28.9 | 276 | Nc1cc(C(=O)N2CC=CCC2)cc2nc(-c3ccc(Cl)o3)nn12 [Example 253] |
| 11.2 | 44.8 | 503 | CC1CCCN1C(=O)c1cc(N)n2nc(-c3ccc(Cl)o3)nc2c1 (stereo not drawn) [Example 254, [5-Amino-2-(5-chloro-furan-2-yl)-[1,2,4]triazolo[1,5-a]pyridin-7-yl]-(2-methyl-pyrrolidin-1-yl)-methanone] |
| 3.2 | 28.9 | 92.5 | CCN(C(=O)c1cc(N)n2nc(-c3ccc(Cl)o3)nc2c1)C(C)C [Example 255, 5-Amino-2-(5-chloro-furan-2-yl)-[1,2,4]triazolo[1,5-a]pyridine-7-carboxylic acid ethyl-isopropyl-amide] |
| 24.4 | 17.7 | 430 | Nc1cc(C(=O)N2CCSCC2)cc2nc(-c3ccc(Cl)o3)nn12 [Example 256, [5-Amino-2-(5-chloro-furan-2-yl)-[1,2,4]triazolo[1,5-a]pyridin-7-yl]-thiomorpholin-4-yl-methanone] |
| 28.9 | 28.3 | 819 | CC1CN(C(=O)c2cc(N)n3nc(-c4ccc(Cl)o4)nc3c2)CC(C)O1 (stereo not drawn) [Example 257, [5-Amino-2-(5-chloro-furan-2-yl)-[1,2,4]triazolo[1,5-a]pyridin-7-yl]-(2,6-dimethyl-morpholin-4-yl)-methanone] |
| 7.2 | 30.6 | 221 | CC1CCC(C)N1C(=O)c1cc(N)n2nc(-c3ccc(Cl)o3)nc2c1 (stereo not drawn) [Example 258, [5-Amino-2-(5-chloro-furan-2-yl)-[1,2,4]triazolo[1,5-a]pyridin-7-yl]-(2,5-dimethyl-pyrrolidin-1-yl)-methanone] |
| 119 | 4.5 | 540 | NC(=O)C1CCN(C(=O)c2cc(N)n3nc(-c4ccc(Cl)o4)nc3c2)CC1 [Example 259, 1-[5-Amino-2-(5-chloro-furan-2-yl)-[1,2,4]triazolo[1,5-a]pyridine-7-carbonyl]-piperidine-4-carboxylic acid amide] |
| 13.4 | 20.2 | 270 | COCCN(CCOC)C(=O)c1cc(N)n2nc(-c3ccc(Cl)o3)nc2c1 [Example 260, 5-Amino-2-(5-chloro-furan-2-yl)-[1,2,4]triazolo[1,5-a]pyridine-7-carboxylic acid bis-(2-methoxy-ethyl)-amide] |
| 2.6 | 14.7 | 37.7 | CCN(Cc1ccccc1)C(=O)c1cc(N)n2nc(-c3ccc(Cl)o3)nc2c1 [Example 261, 5-Amino-2-(5-chloro-furan-2-yl)-[1,2,4]triazolo[1,5-a]pyridine-7-carboxylic acid benzyl-ethyl-amide] |
| 2.9 | 36.8 | 107 | CCN(Cc1ccncc1)C(=O)c1cc(N)n2nc(-c3ccc(Cl)o3)nc2c1 [Example 262, 5-Amino-2-(5-chloro-furan-2-yl)-[1,2,4]triazolo[1,5-a]pyridine-7-carboxylic acid ethyl-pyridin-4-ylmethyl-amide] |

The remaining lines, values behind:

| SMILES | Ki [1] [nM] | selectivity (A1/A2a) [1] | Ki (HA1 adenosine receptor) [nM] |
| --- | --- | --- | --- |
| Nc1cc(C(=O)NCc2ccccc2)cc2nc(-c3ccc(Cl)o3)nn12 [Example 238, 5-Amino-2-(5-chloro-furan-2-yl)-[1,2,4]triazolo[1,5-a]pyridine-7-carboxylic acid benzylamide] | 40.4 | 2.3 | 94.3 |
| CC(C)N(Cc1ccccc1)C(=O)c1cc(N)n2nc(-c3ccc(Cl)o3)nc2c1 [Example 239, 5-Amino-2-(5-chloro-furan-2-yl)-[1,2,4]triazolo[1,5-a]pyridine-7-carboxylic acid benzyl-isopropyl-amide] | 1.7 | 14.6 | 25.1 |
| CN(C(=O)c1cc(N)n2nc(-c3ccc(Cl)o3)nc2c1)C1CCCCC1 [Example 242, 5-Amino-2-(5-chloro-furan-2-yl)-[1,2,4]triazolo[1,5-a]pyridine-7-carboxylic acid cyclohexyl-methyl-amide] | 6.5 | 19.0 | 124 |
| CCN(C(=O)c1cc(N)n2nc(-c3ccc(Cl)o3)nc2c1)C1CCCCC1 [Example 243, 5-Amino-2-(5-chloro-furan-2-yl)-[1,2,4]triazolo[1,5-a]pyridine-7-carboxylic acid cyclohexyl-ethyl-amide] | 3.3 | 28.6 | 95.6 |
| Nc1cc(C(=O)NCc2ccc(Cl)cc2)cc2nc(-c3ccc(Cl)o3)nn12 [Example 244, 5-Amino-2-(5-chloro-furan-2-yl)-[1,2,4]triazolo[1,5-a]pyridine-7-carboxylic acid 4-chloro-benzylamide] | 218 | 0.9 | 190 |
| Nc1cc(C(=O)NCc2ccc(F)cc2)cc2nc(-c3ccc(Cl)o3)nn12 [Example 245, 5-Amino-2-(5-chloro-furan-2-yl)-[1,2,4]triazolo[1,5-a]pyridine-7-carboxylic acid 4-fluoro-benzylamide] | 155 | 1.9 | 289 |
| COc1ccccc1CNC(=O)c1cc(N)n2nc(-c3ccc(Cl)o3)nc2c1 [Example 246, 5-Amino-2-(5-chloro-furan-2-yl)-[1,2,4]triazolo[1,5-a]pyridine-7-carboxylic acid 2-methoxy-benzylamide] | 24 | 3.0 | 71.7 |
| CN(CC1CC1)C(=O)c1cc(N)n2nc(-c3ccc(Cl)o3)nc2c1 [Example 247, 5-Amino-2-(5-chloro-furan-2-yl)-[1,2,4]triazolo[1,5-a]pyridine-7-carboxylic acid cyclopropylmethyl-methyl-amide] | 9.2 | 17.6 | 161 |
| CN(C)C(=O)c1cc(N)n2nc(-c3ccc(Cl)o3)nc2c1 [Example 248, 5-Amino-2-(5-chloro-furan-2-yl)-[1,2,4]triazolo[1,5-a]pyridine-7-carboxylic acid dimethylamide] | 44.3 | 13.6 | 601 |
| Nc1cc(C(=O)N2CCC2)cc2nc(-c3ccc(Cl)o3)nn12 [Example 249, [5-Amino-2-(5-chloro-furan-2-yl)-[1,2,4]triazolo[1,5-a]pyridin-7-yl]-azetidin-1-yl-methanone] | 2090 | 3.0 | 6210 |
